In brackets after ≈: the same amount, converted by molar mass.
Experiment: not given
Details: pH 6.5

| Compound | c(30 min) concentration of solubilized Phenytoin | c(90 min) concentration of solubilized Phenytoin | c(180 min) concentration of solubilized Phenytoin |
| --- | --- | --- | --- |
| poly-[(N-isopropylacrylamide)-co-(N,N-dimethylacrylamide)] [Example 1-1] | 1,208 mg/L | 1,024 mg/L | 1,104 mg/L |
| poly-[(N-isopropylacrylamide)-co-(N,N-dimethylacrylamide)] [Example 1-3] | 992 mg/L | 794 mg/L | 876 mg/L |
| poly-[(N-isopropylacrylamide)-co-(N,N-dimethylacrylamide)] [Example 1-4] | 1,066 mg/L | 758 mg/L | 936 mg/L |
| poly-[(N-isopropylacrylamide)-co-(N,N-dimethylacrylamide)] [Example 1-5] | 942 mg/L | 759 mg/L | 823 mg/L |
| poly-[(N-isopropylacrylamide)-co-(N,N-dimethylacrylamide)] [Example 1-6] | 962 mg/L | 649 mg/L | 875 mg/L |
| poly-[(N-isopropylacrylamide)-co-(N,N-dimethylacrylamide)] [Example 1-7] | 156 mg/L | 137 mg/L | 145 mg/L |
| poly-[(N-isopropylacrylamide)-co-(N,N-dimethylacrylamide)] [Example 1-8] | 183 mg/L | 173 mg/L | 184 mg/L |
| poly-[(N-isopropylacrylamide)-co-(N,N-dimethylacrylamide)] [Example 1-9] | 301 mg/L | 266 mg/L | 265 mg/L |
| poly-[(N-isopropylacrylamide)-co-(N,N-dimethylacrylamide)] [Example 1-10] | 392 mg/L | 281 mg/L | 255 mg/L |
| poly-[(N-isopropylacrylamide)-co-(N,N-dimethylacrylamide)] [Example 1-11] | 895 mg/L | 343 mg/L | 300 mg/L |
| poly-[(N-isopropylacrylamide)-co-(N,N-dimethylacrylamide)] [Example 1-15] | 479 mg/L | 455 mg/L | 409 mg/L |
| poly-[(N-isopropylacrylamide)-co-(N,N-dimethylacrylamide)] [Example 1-16] | 413 mg/L | 379 mg/L | 407 mg/L |

Next, values leading:

| c(30 min) concentration of solubilized Phenytoin | c(90 min) concentration of solubilized Phenytoin | c(180 min) concentration of solubilized Phenytoin | Compound |
| --- | --- | --- | --- |
| 172 mg/L | 197 mg/L | 137 mg/L | poly-[(N,N-diethylacrylamide)-co-(N,N-dimethylacrylamide)] [Example 5-1] |
| 319 mg/L | 322 mg/L | 223 mg/L | poly-[(N,N-diethylacrylamide)-co-(N,N-dimethylacrylamide)] [Example 5-2] |
| 595 mg/L | 413 mg/L | 257 mg/L | poly-[(N,N-diethylacrylamide)-co-(N,N-dimethylacrylamide)] [Example 5-3] |
| 646 mg/L | 667 mg/L | 591 mg/L | poly-[(N,N-diethylacrylamide)-co-(N,N-dimethylacrylamide)] [Example 5-4] |
| 348 mg/L | 359 mg/L | 295 mg/L | poly-[(N,N-diethylacrylamide)-co-(N,N-dimethylacrylamide)] [Example 5-5] |

Experiment: Supersaturation (maintenance) test with Nilutamide
Details: phosphate buffer saline with 0.5 wt. % FaSSIF, 37 °C, pH 6.5, aqueous with cosolvent or surfactant or cyclodextrin, kinetic from dmso stock

| solubility at 30 min [µg/mL] | solubility at 90 min [µg/mL] | solubility at 180 min [µg/mL] | Compound |
| --- | --- | --- | --- |
| 473 (≈ 1490 µM) | 364 (≈ 1150 µM) | 308 (≈ 971 µM) | CC1(C)NC(=O)N(c2ccc([N+](=O)[O-])c(C(F)(F)F)c2)C1=O [Nilutamide] |

Experiment: not given
Details: pH 6.5
Remark: another data set of the same source

| solubilized drug concentration after continuous decrease | Compound |
| --- | --- |
| below 200 mg/L | poly-[(N-isopropylacrylamide)-co-(N,N-dimethylacrylamide)] [Example 1-17] |

Experiment: physchem
Details: 37 °C, pH 6.5, fassif, thermodynamic from solid

| solubility at 4 min [µg/mL] | Compound |
| --- | --- |
| ~50 (≈ 198 µM) | O=C1NC(=O)C(c2ccccc2)(c2ccccc2)N1 [Phenytoin] |

Experiment: physchem
Details: 37 °C, pH 6.5, aqueous with cosolvent or surfactant or cyclodextrin, kinetic from dmso stock

| solubility at 30 min [µg/mL] | solubility at 90 min [µg/mL] | solubility at 180 min [µg/mL] | Compound |
| --- | --- | --- | --- |
| 75 (≈ 297 µM) | 70 (≈ 277 µM) | 73 (≈ 289 µM) | O=C1NC(=O)C(c2ccccc2)(c2ccccc2)N1 [Phenytoin] |

Experiment: not given
Details: pH 6.5
Remark: another data set of the same source

| c(30 min) concentration of solubilized Nilutamide [mg/L] | c(90 min) concentration of solubilized Nilutamide [mg/L] | c(180 min) concentration of solubilized Nilutamide [mg/L] | Compound |
| --- | --- | --- | --- |
| 828 | 833 | 848 | poly-[(N-isopropylacrylamide)-co-(N,N-dimethylacrylamide)] [Example 1-15] |
